Tests used:
Assay type in all cases: in vivo
Hordeum murinum = test: Pre-emergence herbicidal action, HORMU; settings: dosage 320 g/ha, scored visually after 3 weeks vs untreated controls (100% = plants have died)
Outline: (§1)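 Pre-emergence, sandy loam soil; WP/EC formulation applied to covering soil surface, 600–800 l/ha water + 0.2% wetter; greenhouse, 3 wk; visual % damage vs untreated (0–100%).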

Lolium rigidum = test: Pre-emergence herbicidal action, LOLRI; settings: dosage 320 g/ha, scored visually after 3 weeks vs untreated controls (100% = plants have died)
Excerpt: 1. Pre-Emergence Herbicidal Action Against Harmful Plants Seeds of monocotyledonous and dicotyledonous weed plants and crop plants are laid out in sandy loam soil in wood-fiber pots and covered with soil. The compounds of the invention, formulated in the form of wettable powders (WP) or as emulsion concentrates (EC), are then applied to the surface of the covering soil in the form of an aqueous suspension or emulsion at a water application rate equating to 600 to 800 l/ha, with addition of 0.2% wetting agent. After the treatment, the pots are placed in a greenhouse and kept under good growth conditions for the trial plants. The damage to the test plants is scored visually after a test period of 3 weeks by comparison with untreated controls (herbicidal activity in percent (%): 100% activity=the plants have died, 0% activity=like control plants). […] The tables below illustrate, in an exemplary manner, the […] herbicidal action of the compounds according to the invention, the herbicidal activity being stated in percent. [table] In the experiments that follow, herbicidal action of numerous inventive compounds and the known compounds that are structurally closest from D1 (WO 2012/028579 A1) and D2 (WO 2018/202535 A1) were compared under the above-specified conditions by the pre-emergence and post-emergence method. The example numbers given in the tables relate to the compounds disclosed in the respective documents. In addition to the compounds disclosed in D1 and D2, the following compounds V-1 to V-14 that are encompassed by D1 or D2 but are not compounds specified therein were used in the comparative experiments: • V-1: 2-(methylsulfanyl)-3-(methylsulfinyl)-N-(1-methyl-1H-tetrazol-5-yl)-4-(trifluoromethyl)benzamide • V-2: 2-(methylsulfanyl)-3-(methylsulfonyl)-N-(1-methyl-1H-tetrazol-5-yl)-4-(trifluoromethyl)benzamide • V-3: 2,3-bis(ethylsulfanyl)-N-(1-methyl-1H-tetrazol-5-yl)-4-(trifluoromethyl)benzamide • V-4: 2-chloro-3-(ethylsulfanyl)-N-(1-methyl-1H-tetrazol-5-yl)-4-(trifluoromethyl)benzamide • V-5: 2-chloro-4-iodo-3-(methylsulfanyl)-N-(1-methyl-1H-tetrazol-5-yl)benzamide • V-6: 2-chloro-4-iodo-3-(methylsulfinyl)-N-(1-methyl-1H-tetrazol-5-yl)benzamide • V-7: 2-chloro-4-iodo-3-(methylsulfonyl)-N-(1-methyl-1H-tetrazol-5-yl)benzamide • V-8: 2-bromo-3-(methylsulfanyl)-N-(1-methyl-1H-tetrazol-5-yl)-4-(trifluoromethyl)benzamide • V-9: 2-bromo-3-(methylsulfinyl)-N-(1-methyl-1H-tetrazol-5-yl)-4-(trifluoromethyl)benzamide • V-10: 2-bromo-3-(methylsulfonyl)-N-(1-methyl-1H-tetrazol-5-yl)-4-(trifluoromethyl)benzamide • V-11: 2-bromo-3-(ethylsulfanyl)-N-(1-methyl-1H-tetrazol-5-yl)-4-(trifluoromethyl)benzamide • V-12: 2-bromo-3-(ethylsulfinyl)-N-(1-methyl-1H-tetrazol-5-yl)-4-(trifluoromethyl)benzamide • V-13: 2-bromo-3-(ethylsulfonyl)-N-(1-methyl-1-1H-tetrazol-5-yl)-4-(trifluoromethyl)benzamide • V-14: 2-cyclopropyl-3-(ethylsulfanyl)-N-(1-methyl-1H-tetrazol-5-yl)-4-(trifluoromethyl)benzamide Herbicidal Pre-Emergence Action: […]

Stellaria media = test: Pre-emergence herbicidal action, STEME; design: key to Herbicidal action against STEME: % activity: 100 = plants have died, 0 = like control plants; settings: for herbicidal activity STEME: dosage 320 g/ha, scored visually after 3 weeks vs untreated controls (100% = plants have died)
Outline: as §1

Abutilon theophrasti = test: Post-emergence herbicidal action, ABUTH; design: key: % herbicidal action vs untreated; 100 = plants died, 0 = like control; settings: post-emergence, dosage 80 g/ha
Outline: (§2)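 Greenhouse weeds grown in sandy loam were sprayed at the one-leaf stage, 2–3 weeks after sowing, with WP or EC formulations at 600–800 l/ha water plus 0.2% wetting agent. Damage scored visually about 3 weeks later, in percent against untreated controls (100% = plants dead).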

Cyperus esculentus = test: Post-emergence herbicidal action, CYPES; design: key: % herbicidal action vs untreated; 100 = plants died, 0 = like control; settings: post-emergence; for herbicidal action CYPES: dosage 80 g/ha
Outline: as §2

Polygonum convolvulus = test: Post-emergence herbicidal action, POLCO; settings: post-emergence, dosage 80 g/ha
Outline: as §2

Viola tricolor = test: Post-emergence herbicidal action, VIOTR; design: key: % herbicidal action vs untreated; 100 = plants died, 0 = like control; settings: post-emergence, dosage 80 g/ha
Outline: as §2

Row | Compound | herbicidal activity HORMU (Hordeum murinum) [%] | herbicidal activity LOLRI (Lolium rigidum) [%] | herbicidal activity STEME (Stellaria media) [%] | herbicidal action ABUTH (Abutilon theophrasti) [%] | herbicidal action CYPES (Cyperus esculentus) [%] | herbicidal action POLCO (Polygonum convolvulus) [%] | herbicidal action VIOTR (Viola tricolor) [%] | Herbicidal action against STEME (Stellaria media; comparative experiment, 20 g of a.i./ha) | Herbicidal action against CYPES (Cyperus esculentus; comparative experiment, 5 g of a.i./ha)
1 | Cn1nnnc1NC(=O)c1ccc(C(F)(F)F)c(C[S+]([O-])C2CC2)c1Cl (racemic) [Example 1-303] | 100 | 100 | 100 | 100 | 80 | 100 | 100 |  | 
2 | CSc1c(C(=O)Nc2nnnn2C)ccc(C(F)(F)F)c1C[S+](C)[O-] (stereo not shown) [Example 1-162] | 80 | 90 | 100 | 100 | 80 | 90 | 100 |  | 
3 | Cn1nnnc1NC(=O)c1ccc(C(F)(F)F)c(CSC2CC2)c1Cl [Example 1-302] | 100 | 100 | 100 | 100 | 80 | 100 | 100 |  | 
4 | Cn1nnnc1NC(=O)c1ccc(C(F)(F)F)c(CS(=O)(=O)C2CC2)c1Cl [Example 1-304] | 100 | 100 | 100 | 100 | 90 | 100 | 100 |  | 
5 | COCCSCc1c(C(F)(F)F)ccc(C(=O)Nc2nnnn2C)c1Cl [Example 1-305] | 100 | 90 | 100 | 100 | 90 | 100 | 100 |  | 
6 | Cn1nnnc1NC(=O)c1ccc(C(F)(F)F)c(CSCC2CC2)c1Cl [Example 1-314] | 100 | 100 | 90 | 100 | 80 | 100 | 100 |  | 
7 | CSCc1c(I)ccc(C(=O)Nc2nnnn2C)c1Cl [Example 1-362] | 80 | 80 | 100 | 100 |  | 90 | 100 | 90 | 30
8 | CCn1nnnc1NC(=O)c1ccc(C(F)(F)F)c(CSCCOC)c1Cl [Example 2-305] | 100 | 100 | 100 | 100 | 100 | 100 | 100 |  | 
9 | CCCn1nnnc1NC(=O)c1ccc(C(F)(F)F)c(CSCC2CC2)c1Cl [Example 3-314] | 90 | 90 | 100 | 100 | 80 | 100 | 100 |  | 

— US12492173B2, “Herbicidal substituted N-tetrazolyl aryl carboxamides” (Bayer Aktiengesellschaft, priority 2019, dated 2025)
